According to patent US11572341B2, “Biguanide compound and use thereof” (ImmunoMet Therapeutics Inc., priority 2014, dated 2023):
Counter-ions that a name gives are not always drawn.

Test system: HCT116 cells
Test: Inhibitory effect against cancer cell proliferation (MTT)
Assay type: cell-based, human
Details: Homo sapiens, HCT-116; HCT116, MTT, 48 hours; read-out: IC50 (uM) @ HCT116
Description: The formazane crystals thus formed were dissolved using dimethyl sulfoxide (DMSO) and absorbance of the solution was measured at 560 nm. After culturing for 48 hours, […] synthesized in Examples was indicated as cell viability (%) according to each treated concentration.

Compound | IC50 [µM]
Cl.N=C(N)NC(=N)NCc1ccc2c(c1)OCO2 [Example 112, N1-(benzo[d][1,3]dioxol-5-yl)methyl Biguanide Hydrochloride] | > 100
Cl.N=C(NC1=NC(=O)CCN1)N1CCCCC1 [Example 156, N-(4-oxo-1,4,5,6-tetrahydropyrimidin-2-yl)piperidin-1-carboximidamide Hydrochloride] | > 100
CC1CCN(C(=N)NC(=N)Nc2ccc(OC(F)(F)F)cc2)CC1.Cl [Example 52, N1-(4-methyl)piperidin-N5-(4-trifluoromethoxy)phenyl Biguanide Hydrochloride] | 6.8
CN1CCN(C(=N)NC(=N)Nc2ccc(Cl)c(Cl)c2)CC1.Cl [Example 37, N1-(4-methyl)piperazin-N5-(3,4-dichloro)phenyl Biguanide Hydrochloride] | 32.8
CCCCCCN(CCCCCC)C(=N)NC(=N)N.Cl [Example 133, N1,N1-dihexyl Biguanide Hydrochloride] | > 100
CN1CCN(C(=N)NC(=N)NCc2ccc(Cl)cc2)CC1.Cl [Example 31, N1-(4-methyl)piperazin-N5-(4-chloro)benzyl Biguanide Hydrochloride] | > 100
Cl.N=C(NC(=N)N1CC=CC1)N1CC=CC1 [Example 67, N1-2,5-dihydro-1H-pyrrol-N5-2,5-dihydro-1H-pyrrole Biguanide Hydrochloride] | 147
Cl.N=C(N)N/C(=N/CCc1ccccc1)Nc1ccccc1 [Example 94, N1-phenyl-N2-phenethyl Biguanide Hydrochloride] | 105
CC(C)N(C(=N)NC(=N)N)C(C)C.Cl [Example 115, N1,N1-diisopropyl Biguanide Hydrochloride] | > 100
CN1CCN(C(=N)NC(=N)Nc2ccc(F)cc2)CC1.Cl [Example 33, N1-(4-methyl)piperazin-N5-(4-fluoro)phenyl Biguanide Hydrochloride] | > 100
CN1CCN(C(=N)NC(=N)Nc2ccccc2Cl)CC1.Cl [Example 30, N1-(4-methyl)piperazin-N5-(2-chloro)phenyl Biguanide Hydrochloride] | > 100
CCOC1CCN(C(=N)NC(=N)Nc2ccc(OC(F)(F)F)cc2)CC1.Cl [Example 26, N1-(4-ethoxy)piperidin-N5-(4-trifluoromethoxy)phenyl Biguanide Hydrochloride] | 9.7
Cl.N=C(N)N/C(=N/C1CCCCCC1)NCc1ccc(Cl)cc1 [Example 98, N1-(4-chloro)benzyl-N2-cycloheptyl Biguanide Hydrochloride] | 49.2
C/N=C(\NCCc1ccccc1)NC(=N)N(C)C [Example 97, N1-phenethyl-N2-methyl-N5,N5-dimethyl Biguanide Hydrochloride] | 7.5
CN1CCN(C(=N)NC(=N)Nc2ccc(F)c(F)c2)CC1.Cl [Example 38, N1-(4-methylpiperazin-N5-(3,4-difluoro)phenyl Biguanide Hydrochloride] | > 100
CN1CCN(C(=N)NC(=N)Nc2ccc(Cl)cc2)CC1.Cl [Example 27, N1-(4-methyl)piperazin-N5-4-chloro)phenyl Biguanide Hydrochloride] | > 100
Cl.N=C(N)NC(=N)Nc1ccc(OC(F)(F)F)cc1 [Example 140, Hydrochloride] | 100
Cl.N=C(NCc1ccc(OC(F)(F)F)cc1)NC(=N)Nc1cccnc1 [Example 42, Hydrochloride] | 23.7
C/N=C(\NCc1ccccc1)NC(=N)N(C)C [Example 96, N1-benzyl-N2-methyl-N5,N5-dimethyl Biguanide Hydrochloride] | 8.2
CC1CCN(C(=N)NC(=N)Nc2ccc(Cl)cc2)CC1.Cl [Example 55, N1-4-methyl)piperidin-N5-(4-chloro)phenyl Biguanide Hydrochloride] | 10.4
CN1CCN(C(=N)NC(=N)NCc2cccc(Cl)c2)CC1.Cl [Example 35, N1-(4-methyl)piperazin-N5-3-chloro)benzyl Biguanide Hydrochloride] | > 100
Cl.N=C(NC(=N)N1CCCC1)Nc1ccc(Br)cc1 [Example 72, N1-pyrrolidin-N5-4-bromo)phenyl Biguanide Hydrochloride] | 37.7
Cl.N=C(N)NC(=N)N1CCOCC1 [Example 118, Hydrochloride] | > 100
N=C(NC(=N)Nc1cccc(Br)c1)Nc1cccc(Br)c1 [Example 11, N1-(3-bromo)phenyl-N5-3-bromo)phenyl Biguanide Hydrochloride] | 4.8
CCOC1CCN(C(=N)NC(=N)Nc2cccc(OC(F)(F)F)c2)CC1.Cl [Example 25, N1-(4-ethoxy)piperidin-N5-3-trifluoromethoxy)phenyl Biguanide Hydrochloride] | 8.4

Test system: AMPKa [pT172]
Test: AMPKa activation [pT172] in MCF7 cell
Assay type: cell-based
Details: 5 uM

Compound | AMPKa activation [pT172] (Unit/ml) @ MCF7 cell [Unit/ml]
Cl.N=C(NC1=NC(=O)CCN1)N1CCCCC1 [Example 156, N-(4-oxo-1,4,5,6-tetrahydropyrimidin-2-yl)piperidin-1-carboximidamide Hydrochloride] | 3.6
CC1CCN(C(=N)NC(=N)Nc2ccc(OC(F)(F)F)cc2)CC1.Cl [Example 52, N1-(4-methyl)piperidin-N5-(4-trifluoromethoxy)phenyl Biguanide Hydrochloride] | 9.4
CN1CCN(C(=N)NC(=N)Nc2ccc(Cl)c(Cl)c2)CC1.Cl [Example 37, N1-(4-methyl)piperazin-N5-(3,4-dichloro)phenyl Biguanide Hydrochloride] | 5.8
CN1CCN(C(=N)NC(=N)NCc2ccc(Cl)cc2)CC1.Cl [Example 31, N1-(4-methyl)piperazin-N5-(4-chloro)benzyl Biguanide Hydrochloride] | 2.5
Cl.N=C(NC(=N)N1CC=CC1)N1CC=CC1 [Example 67, N1-2,5-dihydro-1H-pyrrol-N5-2,5-dihydro-1H-pyrrole Biguanide Hydrochloride] | 3.2
CN1CCN(C(=N)NC(=N)Nc2ccc(F)cc2)CC1.Cl [Example 33, N1-(4-methyl)piperazin-N5-(4-fluoro)phenyl Biguanide Hydrochloride] | 3.8
CN1CCN(C(=N)NC(=N)Nc2ccccc2Cl)CC1.Cl [Example 30, N1-(4-methyl)piperazin-N5-(2-chloro)phenyl Biguanide Hydrochloride] | 4.2
CCOC1CCN(C(=N)NC(=N)Nc2ccc(OC(F)(F)F)cc2)CC1.Cl [Example 26, N1-(4-ethoxy)piperidin-N5-(4-trifluoromethoxy)phenyl Biguanide Hydrochloride] | 3.6
Cl.N=C(N)N/C(=N/C1CCCCCC1)NCc1ccc(Cl)cc1 [Example 98, N1-(4-chloro)benzyl-N2-cycloheptyl Biguanide Hydrochloride] | 7.2
CC1(C)CC(=O)N=C(NC(=N)N2CCCCC2)N1.Cl [Example 151, N-(6,6-dimethyl-4-oxo-1,4,5,6-tetrahydropyrimidin-2-yl)piperidin-1-carboximidamide Hydrochloride] | 9.4
CCC1CCNC(NC(=N)N2CCCCC2)=N1.Cl (stereo not drawn) [Example 165, N-(4-ethyl-1,4,5,6-tetrahydropyrimidin-2-)piperidin-1-carboximidamide Hydrochloride] | 3.80

Same assay, conditions: 10 uM

Compound | AMPKa activation [pT172] (Unit/ml) @ MCF7 cell [Unit/ml]
Cl.N=C(NC1=NC(=O)CCN1)N1CCCCC1 [Example 156, N-(4-oxo-1,4,5,6-tetrahydropyrimidin-2-yl)piperidin-1-carboximidamide Hydrochloride] | 2.6
CC1CCN(C(=N)NC(=N)Nc2ccc(OC(F)(F)F)cc2)CC1.Cl [Example 52, N1-(4-methyl)piperidin-N5-(4-trifluoromethoxy)phenyl Biguanide Hydrochloride] | 15.0
CN1CCN(C(=N)NC(=N)Nc2ccc(Cl)c(Cl)c2)CC1.Cl [Example 37, N1-(4-methyl)piperazin-N5-(3,4-dichloro)phenyl Biguanide Hydrochloride] | 7.5
CN1CCN(C(=N)NC(=N)NCc2ccc(Cl)cc2)CC1.Cl [Example 31, N1-(4-methyl)piperazin-N5-(4-chloro)benzyl Biguanide Hydrochloride] | 3.6
Cl.N=C(NC(=N)N1CC=CC1)N1CC=CC1 [Example 67, N1-2,5-dihydro-1H-pyrrol-N5-2,5-dihydro-1H-pyrrole Biguanide Hydrochloride] | 2.9
CN1CCN(C(=N)NC(=N)Nc2ccc(F)cc2)CC1.Cl [Example 33, N1-(4-methyl)piperazin-N5-(4-fluoro)phenyl Biguanide Hydrochloride] | 3.3
CN1CCN(C(=N)NC(=N)Nc2ccccc2Cl)CC1.Cl [Example 30, N1-(4-methyl)piperazin-N5-(2-chloro)phenyl Biguanide Hydrochloride] | 4.0
CCOC1CCN(C(=N)NC(=N)Nc2ccc(OC(F)(F)F)cc2)CC1.Cl [Example 26, N1-(4-ethoxy)piperidin-N5-(4-trifluoromethoxy)phenyl Biguanide Hydrochloride] | 6.6
Cl.N=C(N)N/C(=N/C1CCCCCC1)NCc1ccc(Cl)cc1 [Example 98, N1-(4-chloro)benzyl-N2-cycloheptyl Biguanide Hydrochloride] | 9.6
CC1(C)CC(=O)N=C(NC(=N)N2CCCCC2)N1.Cl [Example 151, N-(6,6-dimethyl-4-oxo-1,4,5,6-tetrahydropyrimidin-2-yl)piperidin-1-carboximidamide Hydrochloride] | 7.7
CCC1CCNC(NC(=N)N2CCCCC2)=N1.Cl (stereo not drawn) [Example 165, N-(4-ethyl-1,4,5,6-tetrahydropyrimidin-2-)piperidin-1-carboximidamide Hydrochloride] | 4.36

Same assay, conditions: 50 uM

Compound | AMPKa activation [pT172] (Unit/ml) @ MCF7 cell
Cl.N=C(N)NC(=N)NCc1ccc2c(c1)OCO2 [Example 112, N1-(benzo[d][1,3]dioxol-5-yl)methyl Biguanide Hydrochloride] | 10.6 Unit/ml
Cl.N=C(NC1=NC(=O)CCN1)N1CCCCC1 [Example 156, N-(4-oxo-1,4,5,6-tetrahydropyrimidin-2-yl)piperidin-1-carboximidamide Hydrochloride] | 4.9 Unit/ml
CC1CCN(C(=N)NC(=N)Nc2ccc(OC(F)(F)F)cc2)CC1.Cl [Example 52, N1-(4-methyl)piperidin-N5-(4-trifluoromethoxy)phenyl Biguanide Hydrochloride] | cell death
CN1CCN(C(=N)NC(=N)Nc2ccc(Cl)c(Cl)c2)CC1.Cl [Example 37, N1-(4-methyl)piperazin-N5-(3,4-dichloro)phenyl Biguanide Hydrochloride] | 15.0 Unit/ml
CCCCCCN(CCCCCC)C(=N)NC(=N)N.Cl [Example 133, N1,N1-dihexyl Biguanide Hydrochloride] | 7.1 Unit/ml
CN1CCN(C(=N)NC(=N)NCc2ccc(Cl)cc2)CC1.Cl [Example 31, N1-(4-methyl)piperazin-N5-(4-chloro)benzyl Biguanide Hydrochloride] | 6.1 Unit/ml
Cl.N=C(NC(=N)N1CC=CC1)N1CC=CC1 [Example 67, N1-2,5-dihydro-1H-pyrrol-N5-2,5-dihydro-1H-pyrrole Biguanide Hydrochloride] | 4.8 Unit/ml
Cl.N=C(N)N/C(=N/CCc1ccccc1)Nc1ccccc1 [Example 94, N1-phenyl-N2-phenethyl Biguanide Hydrochloride] | 9.0 Unit/ml
CC(C)N(C(=N)NC(=N)N)C(C)C.Cl [Example 115, N1,N1-diisopropyl Biguanide Hydrochloride] | 4.8 Unit/ml
CN1CCN(C(=N)NC(=N)Nc2ccc(F)cc2)CC1.Cl [Example 33, N1-(4-methyl)piperazin-N5-(4-fluoro)phenyl Biguanide Hydrochloride] | 4.3 Unit/ml
CN1CCN(C(=N)NC(=N)Nc2ccccc2Cl)CC1.Cl [Example 30, N1-(4-methyl)piperazin-N5-(2-chloro)phenyl Biguanide Hydrochloride] | 4.2 Unit/ml
CCOC1CCN(C(=N)NC(=N)Nc2ccc(OC(F)(F)F)cc2)CC1.Cl [Example 26, N1-(4-ethoxy)piperidin-N5-(4-trifluoromethoxy)phenyl Biguanide Hydrochloride] | cell death
Cl.N=C(N)N/C(=N/C1CCCCCC1)NCc1ccc(Cl)cc1 [Example 98, N1-(4-chloro)benzyl-N2-cycloheptyl Biguanide Hydrochloride] | 37.5 Unit/ml
CC1(C)CC(=O)N=C(NC(=N)N2CCCCC2)N1.Cl [Example 151, N-(6,6-dimethyl-4-oxo-1,4,5,6-tetrahydropyrimidin-2-yl)piperidin-1-carboximidamide Hydrochloride] | 11.2 Unit/ml
Cl.N=C(NCCc1ccc(Cl)cc1)NC(=N)N1CCCCC1 [Example 13] | 7.0 Unit/ml
CCC1CCNC(NC(=N)N2CCCCC2)=N1.Cl (stereo not drawn) [Example 165, N-(4-ethyl-1,4,5,6-tetrahydropyrimidin-2-)piperidin-1-carboximidamide Hydrochloride] | 9.16 Unit/ml
